Reference: PMC10257182, “Discovery of senolytics using machine learning” (Nature Communications, 2023)
Values joined by “and” are separate entries in the source; they are usually repeats but may differ in a detail not shown here. Identical values can stand only once. Like-named read-outs stand apart in the source and are kept apart here.

Columns and labels:
Type in all cases: cell-based, human
[1] = system: non-senescent control A549 cells; test: Nuclei count senolytic assay, TIS model, non-senescent control cells; conditions: for % Cell Survival: control cells, single replicate
Outline: (§1)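 A549 cells were made senescent with 100 μM etoposide for 48 h, then kept three days in normal media; non-senescent A549 served as controls. Compounds were dosed as a 10-point […] series (10 μM to 10 nM final) for 72 h in triplicate. Hoechst-stained nuclei were counted by imaging after fixation.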

[2] = system: non-senescent control IMR90 ER:RAS cells; test: Nuclei count (Hoechst, high content imaging) senolytic assay, OIS model, non-senescent control cells; conditions: Homo sapiens
Outline: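 Senescence in IMR90 ER:RAS fibroblasts induced with 100 nM 4-OHT; non-senescent and senescent cells treated 72 h with compounds, 10-point […] range 10 μM–10 nM, triplicate. Cells fixed, permeabilised, Hoechst-stained; total nuclei per well counted by high-content imaging versus untreated controls as cell-death readout.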

[3] = system: senescent A549 cells (etoposide-induced); test: Nuclei count senolytic assay, therapy-induced senescence (TIS) model, senescent cells; conditions: for % Cell Survival: senescence cells, single replicate
Outline: as §1

Compound: COc1cc(O)c2c(=O)cc(-c3ccc(OC)c(-c4c(O)cc(O)c5c(=O)cc(-c6ccc(O)cc6)oc45)c3)oc2c1 [Ginkgetin, ginkgetin]
- viability at 10 µM ([1]; Homo sapiens, A549, log (dose) [M] -5, Control cells, mean, read-out: Mean % Cell Survival): 56.2%
- viability at 4.68 µM ([1]; Homo sapiens, A549, log (dose) [M] -5.33, Control cells, mean, read-out: Mean % Cell Survival): 65.7%
- viability at 2.19 µM ([1]; Homo sapiens, A549, log (dose) [M] -5.66, Control cells, mean, read-out: Mean % Cell Survival): 98.7%
- viability at 1 µM ([1]; Homo sapiens, A549, log (dose) [M] -6, Control cells, mean, read-out: Mean % Cell Survival): 85.7%
- viability at 0.468 µM ([1]; Homo sapiens, A549, log (dose) [M] -6.33, Control cells, mean, read-out: Mean % Cell Survival): 31.8%
- viability at 0.219 µM ([1]; Homo sapiens, A549, log (dose) [M] -6.66, Control cells, mean, read-out: Mean % Cell Survival): 96.2%
- viability at 0.1 µM ([1]; Homo sapiens, A549, log (dose) [M] -7, Control cells, mean, read-out: Mean % Cell Survival): 94%
- viability at 0.0468 µM ([1]; Homo sapiens, A549, log (dose) [M] -7.33, Control cells, mean, read-out: Mean % Cell Survival): 96.8%
- viability at 0.0219 µM ([1]; Homo sapiens, A549, log (dose) [M] -7.66, Control cells, mean, read-out: Mean % Cell Survival): 95.6%
- viability at 0.01 µM ([1]; Homo sapiens, A549, log (dose) [M] -8, Control cells, mean, read-out: Mean % Cell Survival): 68.4%
- IC50 ([1]; Homo sapiens, TIS model, non-senescent A549, nuclei count, 72 h): 10.4 µM
- % Cell Survival ([1]; log (dose) [M] -5): 52.2043% and 59.0944% and 57.4435%
- % Cell Survival ([1]; log (dose) [M] -5.33): 97.7607% and 99.3093%
- % Cell Survival ([1]; log (dose) [M] -5.66): 91.6025% and 99.9233% and 104.599%
- % Cell Survival ([1]; log (dose) [M] -6): 75.5773% and 89.4858% and 92.1278%
- % Cell Survival ([1]; log (dose) [M] -6.33): 95.472%
- % Cell Survival ([1]; log (dose) [M] -6.66): 87.9636% and 100.998% and 99.7662%
- % Cell Survival ([1]; log (dose) [M] -7): 85.4444% and 99.693% and 96.7264%
- % Cell Survival ([1]; log (dose) [M] -7.33): 92.3723% and 99.3093% and 98.675%
- % Cell Survival ([1]; log (dose) [M] -7.66): 89.3632% and 102.916% and 94.4661%
- % Cell Survival ([1]; log (dose) [M] -8): 103.761% and 101.325%
- viability at 10 µM ([2]; IMR-90, 72 h, Control, log (dose) [M] -5, 72 h, mean n=3 (Fig 3C), read-out: Mean % Cell Survival): 37.6%
- viability at 4.677 µM ([2]; IMR-90, 72 h, Control, log (dose) [M] -5.33, 72 h, mean n=3 (Fig 3C), read-out: Mean % Cell Survival): 87%
- viability at 2.188 µM ([2]; IMR-90, 72 h, Control, log (dose) [M] -5.66, 72 h, mean n=3 (Fig 3C), read-out: Mean % Cell Survival): 87.7%
- viability at 1 µM ([2]; IMR-90, 72 h, Control, log (dose) [M] -6, 72 h, mean n=3 (Fig 3C), read-out: Mean % Cell Survival): 87.1%
- viability at 0.4677 µM ([2]; IMR-90, 72 h, Control, log (dose) [M] -6.33, 72 h, mean n=3 (Fig 3C), read-out: Mean % Cell Survival): 85.5%
- viability at 0.2188 µM ([2]; IMR-90, 72 h, Control, log (dose) [M] -6.66, 72 h, mean n=3 (Fig 3C), read-out: Mean % Cell Survival): 86.2%
- viability at 0.1 µM ([2]; IMR-90, 72 h, Control, log (dose) [M] -7, 72 h, mean n=3 (Fig 3C), read-out: Mean % Cell Survival): 85.1%
- viability at 0.04677 µM ([2]; IMR-90, 72 h, Control, log (dose) [M] -7.33, 72 h, mean n=3 (Fig 3C), read-out: Mean % Cell Survival): 87.3%
- viability at 0.02188 µM ([2]; IMR-90, 72 h, Control, log (dose) [M] -7.66, 72 h, mean n=3 (Fig 3C), read-out: Mean % Cell Survival): 88.8%
- viability at 0.01 µM ([2]; IMR-90, 72 h, Control, log (dose) [M] -8, 72 h, mean n=3 (Fig 3C), read-out: Mean % Cell Survival): 93%
- viability at 4.677 µM ([2]; IMR-90, control, log (dose) [M] -5.33, individual replicates (Fig 3D), read-out: % Cell Survival): 83%
- viability at 2.188 µM ([2]; IMR-90, control, log (dose) [M] -5.66, individual replicates (Fig 3D), read-out: % Cell Survival): 83.6%
- viability at 1 µM ([2]; IMR-90, control, log (dose) [M] -6, individual replicates (Fig 3D), read-out: % Cell Survival): 78.9%
- viability at 0.4677 µM ([2]; IMR-90, control, log (dose) [M] -6.33, individual replicates (Fig 3D), read-out: % Cell Survival): 82.5%
- viability at 0.2188 µM ([2]; IMR-90, control, log (dose) [M] -6.66, individual replicates (Fig 3D), read-out: % Cell Survival): 81.2%
- viability at 0.1 µM ([2]; IMR-90, control, log (dose) [M] -7, individual replicates (Fig 3D), read-out: % Cell Survival): 74.3%
- viability at 0.01 µM ([2]; IMR-90, control, log (dose) [M] -8, individual replicates (Fig 3D), read-out: % Cell Survival): 85.3%
- IC50 ([2]; IMR-90, OIS model, non-senescent IMR90 ER:RAS, nuclei count, 72 h): 26 µM
- viability at 10 µM ([3]; Homo sapiens, A549, log (dose) [M] -5, Senescent cells, mean, read-out: Mean % Cell Survival): 25.9%
- viability at 4.68 µM ([3]; Homo sapiens, A549, log (dose) [M] -5.33, Senescent cells, mean, read-out: Mean % Cell Survival): 55.3%
- viability at 2.19 µM ([3]; Homo sapiens, A549, log (dose) [M] -5.66, Senescent cells, mean, read-out: Mean % Cell Survival): 103%
- viability at 1 µM ([3]; Homo sapiens, A549, log (dose) [M] -6, Senescent cells, mean, read-out: Mean % Cell Survival): 115%
- viability at 0.468 µM ([3]; Homo sapiens, A549, log (dose) [M] -6.33, Senescent cells, mean, read-out: Mean % Cell Survival): 104%
- viability at 0.219 µM ([3]; Homo sapiens, A549, log (dose) [M] -6.66, Senescent cells, mean, read-out: Mean % Cell Survival): 126%
- viability at 0.1 µM ([3]; Homo sapiens, A549, log (dose) [M] -7, Senescent cells, mean, read-out: Mean % Cell Survival): 85.3%
- viability at 0.0468 µM ([3]; Homo sapiens, A549, log (dose) [M] -7.33, Senescent cells, mean, read-out: Mean % Cell Survival): 89.9%
- viability at 0.0219 µM ([3]; Homo sapiens, A549, log (dose) [M] -7.66, Senescent cells, mean, read-out: Mean % Cell Survival): 99.8%
- viability at 0.01 µM ([3]; Homo sapiens, A549, log (dose) [M] -8, Senescent cells, mean, read-out: Mean % Cell Survival): 95.8%
- IC50 ([3]; Homo sapiens, TIS model, etoposide-induced senescent A549, nuclei count, 72 h): 5.7 µM
- concentration at which a senolytic effect was reached ([3]; TIS A549, Hoechst labelling, marginal or no effect on normal cells): 4.64 µM
- senolytic action (in words) ([3]; experimental screen, TIS senescent A549): strong senolytic action
- % Cell Survival ([3]; log (dose) [M] -5): 26.9419% and 20.9924% and 29.7526%
- % Cell Survival ([3]; log (dose) [M] -5.33): 57.8726% and 51.7176% and 56.1849%
- % Cell Survival ([3]; log (dose) [M] -5.66): 111.826% and 87.7863% and 107.943%
- % Cell Survival ([3]; log (dose) [M] -6): 147.166% and 101.59% and 95.3776%
- % Cell Survival ([3]; log (dose) [M] -6.33): 97.7607% and 104.262% and 110.807%
- % Cell Survival ([3]; log (dose) [M] -6.66): 107.348% and 137.468% and 133.789%
- % Cell Survival ([3]; log (dose) [M] -7): 106.298% and 85.6234% and 63.9323%
- % Cell Survival ([3]; log (dose) [M] -7.33): 97.7607% and 95.0382% and 76.8229%
- % Cell Survival ([3]; log (dose) [M] -7.66): 110.287% and 102.735% and 86.4583%
- % Cell Survival ([3]; log (dose) [M] -8): 107.348% and 95.9288% and 84.0495%
